Measured values from article PMC2698029 (Journal of medicinal chemistry, 2009).
Counter-ions that a name gives are not always drawn. Marks after values point to notes of the source that are not given here.

Experiments:
[1] = tested on: Plasmodium berghei, ANKA strain; details: cited from earlier work; for Average survival time (not prolonged beyond day): single oral dose of 30 mg/kg, summary of Table 1
[2] = tested on: WT-MEF Noncancerous mouse embryonic fibroblasts; experiment: Cytotoxicity, SRB assay, WT-MEF noncancerous fibroblasts; type: cell-based; details: Fibroblast, 72 h, read-out: IC50 Values (μM)
[3] = Hydrolytic stability in DMSO/water; type: physicochemical; details: room temperature, 80/20 DMSO/water at pH 7.4
[4] = Thermal stability in the solid state; type: physicochemical; details: 60 °C
[5] = tested on: Plasmodium berghei, ANKA strain; experiment: Single oral dose antimalarial efficacy in P. berghei-infected mice; type: in vivo, C57BL/6J male mice; details: single oral dose 144 mg/kg
[6] = single oral dose of 30 mg/kg (printed in the 1 × 72 column)

Structure (SMILES) | Average Survival (days) After Infection [1, 6] | Average survival time (not prolonged beyond day) [1] | IC50 [2] | Time stable in solution [3] | Time stable in the solid state [4] | Parasitemia at day 30 ([5]; 2 of the 5 mice, appeared sick) | Stability in the solid state for one week ([4]; one week) | Adverse effects ([5]; malaria-infected mice) | % Suppression of Parasitemia (on day 3 post infection) [1, 6]
C[C@H]1[C@H](OC(=O)CCC(=O)[O-])O[C@@H]2O[C@@]3(C)CC[C@H]4[C@H](C)CC[C@@H]1[C@@]24OO3.[Na+] [Dimer 1c, sodium artesunate] | 7.6 ^b days | ≤ 11 days |  |  |  |  |  |  | 
C[C@H]1[C@@H](CC(C[C@H]2O[C@@H]3C[C@]4(C)CC[C@H]5[C@H](C)CC[C@@H]([C@H]2C)[C@@]35OO4)CS(=O)(=O)c2ccc(CO)cc2)O[C@@H]2C[C@]3(C)CC[C@H]4[C@H](C)CC[C@@H]1[C@@]24OO3 (some centres unmarked) [Dimer 4b, dimeric sulfone benzylic alcohol] |  |  | > 50 µM | at least 12 hours | ≥ 24 h | 7–9% |  |  | 
C[C@H]1[C@@H](CC(C[C@H]2O[C@@H]3C[C@]4(C)CC[C@H]5[C@H](C)CC[C@@H]([C@H]2C)[C@@]35OO4)CS(=O)(=O)c2ccc(COC(=O)N(C)C)cc2)O[C@@H]2C[C@]3(C)CC[C@H]4[C@H](C)CC[C@@H]1[C@@]24OO3 [Dimer 4c, dimeric sulfone benzylic dimethyl carbamate] |  |  | > 50 µM | at least 12 hours | ≥ 24 h |  | stable | no adverse effects | 
CC(C)(N)CNC(=O)C[C@H]1CC[C@]2(CC1)OO[C@]1(O2)C2CC3CC(C2)CC1C3 [Dimer 7, OZ277 maleate] | 10.7 ^b days | ≤ 11 days |  |  |  |  |  |  | 99.95 ^b %
